Data on one molecule can be found in PMC2700083, “A covalent peptide inhibitor of RGS4 identified in a focused one-bead, one compound library screen” (BMC Pharmacology, 2009).

Data set [1] is described as follows: Solubility in buffer by HPLC. The format is physicochemical. Here is the method: Soluble peptides were synthesized on Rink resin, cleaved and cyclized as described previously. Peptide purity (at least 95%) and solubility were verified by high-performance liquid chromatography and correct mass was verified by MS analysis. ALogP calculations are from. Peptides were prepared as 5 mM stocks in DMSO.

The target of data set [2] is T1, RGS4 A95C, -7C (Rattus norvegicus, UniProt P49799, C132A/C148A/C183A/C197A/C204A/C71A).
T1 construct: made in house
Put plainly: FCPIA, RGS4 A95C in the -7C. The format is binding. As to conditions: read-out: 5nd logIC50 (converted). As for the experimental part:
(§1) Figure 5 Dose curves of 5nd on various RGS4 cysteine mutants. Various concentrations of 5nd were tested for disruption of the RGS4-Gαo interaction for C95A (5 nM), or […], C71A (5nM) or C148A (5nM) (B), A95C in the -7C (5nM), or A132C in the -7C (5nM) (C), A71C in the -7C (5nM), or A148C in the -7C (5nM) (D) or the mutant with no cysteines in the domain (20 nM) or the C-terminus (20 nM) (E) in the FCPIA (mean ± S.E.M., n ≥ 3).
(§2) The previous experiments tested which cysteines are necessary for inhibition by 5nd. In an alternative approach, we added cysteines back to the -7C mutant to determine which might be sufficient for 5nd activity. […] Furthermore, Cys132 is involved in the actions but this is clearly not sufficient to explain them. Thus it is concluded that 5nd is at least partially non-selective in its cysteine modification.
(§3) Proteins were expressed, purified and labeled as described previously. The mutagenesis was done using the "QuickChange Multi Site-Directed Mutagenesis Kit" from Stratagene according to the manufacturer's protocol. The construct of RGS4 used in these studies is a maltose binding protein (MBP-) fusion protein of the RGS4 sequence from which the amphipathic N-terminal helix has been removed (i.e. MBP-RGS4Δ51N). For simplicity in the text, this will be referred to as RGS4. […]

Data set [3] concerns the target T2, RGS4 (Rattus norvegicus, UniProt P49799).
T2 construct: made in house
T2 sequence (P49799 52-205 limits assumed): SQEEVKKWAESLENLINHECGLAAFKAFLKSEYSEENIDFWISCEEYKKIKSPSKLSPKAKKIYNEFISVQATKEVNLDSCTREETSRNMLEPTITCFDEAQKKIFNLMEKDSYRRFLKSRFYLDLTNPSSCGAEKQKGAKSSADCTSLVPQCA
As to the kind of experiment: FCPIA (flow cytometry protein interaction assay), RGS4-Gαo interaction, wild type RGS4 (MBP-RGS4Δ51N). The format is binding. To be noted: peptide 50 μM; 25 nM Gαo-Alexa Fluor-532, 5 nM RGS4-biotin. Here is the method: We recently described a bead-based screen in which 2.5 × 10^6 different peptide sequences were prepared as a OBOC library. Fluorescently labeled RGS4 was used to probe the library for peptides that bind RGS4 [5]. […] Since the majority of those hit peptides could bind tightly to the RGS without disrupting GAP activity, they were also tested in the flow cytometry protein interaction assay (FCPIA) (Figure 1), which measures the interaction between RGS4 and Gαo. In this method we used a Luminex flow cytometer to detect the binding of Alexa Fluor 532-labeled Gαo to biotinylated RGS4 on avidin beads in the presence of AMF (AlCl3, MgCl2, NaF and GDP) to put the Gα subunit into a transition state-like conformation. Peptides were tested at 50 μM except where limited by solubility (Table 1).
Figure 1 Hit peptides in the FCPIA. Hit peptides from Roof, et al. 2008 were tested at 50 μM unless otherwise indicated for ability to disrupt the RGS4-Gαo interaction as described using 25 nM Gα o-Alexa Fluor-532 and 5 nM wild type RGS4-biotin (mean ± S.E.M., n ≥ 3) *p < 0.05, **p < 0.01, ***p < 0.001 compared to no peptide.
(§4) Proteins were expressed, purified and labeled as described previously. The mutagenesis was done using the "QuickChange Multi Site-Directed Mutagenesis Kit" from Stratagene according to the manufacturer's protocol. The construct of RGS4 used in these studies is a maltose binding protein (MBP-) fusion protein of the RGS4 sequence from which the amphipathic N-terminal helix has been removed (i.e. MBP-RGS4Δ51N). For simplicity in the text, this will be referred to as RGS4. All other RGS proteins were human sequences and were used as Mpb fusions: RGS7 RGS domain (aa: 305–453), RGS8 full length, RGS16 full length, and RGS19ΔC11 (amino acids 1–209). To cleave RGS4Δ51N from the MBP-His6 construct for MS analysis, MBP-His6-RGS4Δ51N was treated with 15% MBP-His6-TEV protease S219V [11] for 22 hours at 4°C and purified over a Ni-NTA column.
(§5) FCPIA was performed as previously published.
In general terms: A flow cytometer gives signals particle by particle.

The target in data set [4] is T3, RGS4 C71A (Rattus norvegicus, UniProt P49799, C71A).
T3 construct: made in house
T3 sequence (P49799 52-205 C71A limits assumed): T2 sequence (P49799 52-205 limits assumed) with C20A
As to the kind of experiment: FCPIA, RGS4 cysteine mutant C71A. It is filed as binding. As to conditions: read-out: 5nd logIC50 (converted). As for the experimental part: as §1, §4, §5

The subject of data set [5] is RGS4 no Cys in C-terminus. Put plainly: FCPIA, RGS4 mutant with no Cys in C-terminus. The format is binding. Here is the method: (§6) Since 5nd forms an irreversible, DTT-sensitive bond with RGS, it was suspected that it binds covalently to a cysteine in the protein through a disulfide bridge. Indeed, removal of all 7 cysteines (termed the -7C mutant) from RGS4 greatly diminished 5nd activity (logIC50 of -3.24 ± 0.14 for -7C vs. -4.36 ± 0.02 for wild type) (Figure 5, Table 2).
as §1, §3

The target in data set [6] is T4, RGS4 C95A (Rattus norvegicus, UniProt P49799, C95A).
T4 construct: made in house
T4 sequence (P49799 52-205 C95A limits assumed): T2 sequence (P49799 52-205 limits assumed) with C44A
As to the kind of experiment: FCPIA, RGS4 cysteine mutant C95A. It is filed as binding. As to conditions: read-out: 5nd logIC50 (converted). As for the experimental part:
as §1, §4, §5

Data set [7] addresses T5, RGS4 C148A (Rattus norvegicus, UniProt P49799, C148A).
T5 construct: made in house
Put plainly: FCPIA, RGS4 cysteine mutant C148A. It is filed as binding. To be noted: read-out: 5nd logIC50 (converted). Here is the method:
as §1, §4, §5

In data set [8] the target is T6, RGS4 no Cys in RGS domain (Rattus norvegicus, UniProt P49799, C132A/C148A/C71A/C95A).
T6 construct: made in house
Put plainly: FCPIA, RGS4 mutant with no Cys in RGS domain. It is filed as binding. As for the experimental part: as §6, §1, §3

Data set [9] concerns the target T7, RGS4 A132C, -7C (Rattus norvegicus, UniProt P49799, C148A/C183A/C197A/C204A/C71A/C95A).
T7 construct: made in house
Put plainly: FCPIA, RGS4 A132C in the -7C. The format is binding. As to conditions: read-out: 5nd logIC50 (converted). Here is the method:
as §1, §2, §3

Residue numbers refer to the chain shown, from its start. Converted amounts (≈) assume the structure as drawn. Marks after values point to notes of the source that are not given here. Where a SMILES comes first, the peptide text is derived from it. Bridges are numbered along the chain shown (N, C = ends).

T6 sequence (P49799 52-205 C71A/C95A/C132A/C148A limits assumed): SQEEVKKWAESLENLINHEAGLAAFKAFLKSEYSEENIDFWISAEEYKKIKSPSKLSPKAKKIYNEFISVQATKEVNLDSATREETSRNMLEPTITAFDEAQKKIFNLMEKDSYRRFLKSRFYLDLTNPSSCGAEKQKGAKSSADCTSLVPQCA
T1 sequence (P49799 52-205 C71A/C132A/C148A/C183A/C197A/C204A): as the sequence (P49799 52-205 C71A/C95A/C132A/C148A limits assumed) above, with A44C, C132A, C146A, C153A counted along it
T5 sequence (P49799 52-205 C148A limits assumed): as the sequence (P49799 52-205 C71A/C95A/C132A/C148A limits assumed) above, with A20C, A44C, A81C counted along it
T7 sequence (P49799 52-205 C71A/C95A/C148A/C183A/C197A/C204A): as the sequence (P49799 52-205 C71A/C95A/C132A/C148A limits assumed) above, with A81C, C132A, C146A, C153A counted along it

As for `CC(C)C[C@@H]1NC(=O)CNC(=O)[C@H](CCCCN)NC(=O)[C@@H](NC(=O)[C@H](Cc2c[nH]c3ccccc23)NC(=O)[C@@H](N)Cc2ccc(O)cc2)CSSC[C@@H](C(=O)N[C@@H](CCCCN)C(N)=O)NC1=O` [Peptide 5nd, Tyr-Trp-c [Cys-Lys-Gly-Leu-Cys]-Lys-NH2, S-S] (H-YWCKGLCK-NH2; disulfide 3-7), in data set [1], the solubility was determined as 463 µM (≈ 462 µg/mL). For the same molecule, the IC50 in [2] is 263 µM; in data set [4], 45.7 µM; in data set [6], 19.5 µM; in [7] it was 53.7 µM; in data set [8] (no Cys in RGS domain, read-out: 5nd logIC50 (converted)), 158 µM; in data set [9], 389 µM. In addition, the “% Inhibition of RGS4-Gαo” value in data set [3] is reported as 80 ± 5*** %. Moreover, in [5], the “5nd logIC50” value is recorded as -4.39 ± 0.07 M. Besides, the “reduction of potency by removal of all 4 cysteines from the RGS domain” value in data set [8] (versus wild type RGS4) turned out to be 3.6 fold.

One may read the solubility as how much of the substance goes into solution per volume.
